# Data taken from patent US12350270B2, “Antimalarial agents” (Merck Sharp & Dohme LLC, priority 2019, dated 2025).
# System: parasites (ring stage, in human red blood cell culture)
# Assay: Parasite LDH growth assay (antiparasite potency, Parasite Assay)
# Assay type: cell-based, Plasmodium falciparum
# Conditions: 0.7% rings, 2% haematocrit, 72 hours at 37° C., LDH readout of parasite growth
# Method in brief: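 Ring-stage parasites at 0.7% parasitemia and 2% haematocrit, in RPMI-Hepes/bicarbonate with 5% heat-inactivated human serum and 0.5% albumax, were added to compound-containing medium. Cultures grew 72 h at 37 °C in gassed humidified boxes. Plates were then frozen overnight at −80 °C, thawed 4 h, and growth was measured by LDH assay.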
row,Compound,EC50 [nM]
1,"CCC1(CC)CC(=O)N([C@H]2c3cc(C(=O)N[C@@H]4c5ccccc5C[C@H]4O)ccc3CC2OC)C(=N)N1 (stereo partly drawn) [Example 140B, (3S)-3-(4,4-diethyl-2-imino-6-oxo-hexahydropyrimidin-1-yl)-N-[(1R,2R)-2-hydroxyindan-1-yl]-2-methoxy-indane-5-carboxamide]",1.7

# Same assay, conditions: Plasmodium falciparum, Erythrocyte, 72 h, 0.7% rings, 2% haematocrit, 72 hours at 37° C., LDH readout of parasite growth
row,Compound,EC50 [nM]
1,"C[C@@H]1Cc2ccc(C(=O)N[C@@H]3c4ccccc4OC(C)(C)[C@H]3O)cc2[C@@H]1N1C(=N)NC(C)(C)CC1=O [Example 135, (2R,3R)-N-[(3S,4R)-3-hydroxy-2,2-dimethyl-chroman-4-yl]-3-(2-imino-4,4-dimethyl-6-oxo-hexahydropyrimidin-1-yl)-2-methyl-indane-5-carboxamide]",0.9
2,"C[C@H]1Cc2ccc(C(=O)N[C@@H]3c4ccccc4OC(C)(C)[C@H]3O)cc2[C@@H]1N1C(=N)NC(C)(C)CC1=O [Example 136, (2S,3R)-N-[(3S,4R)-3-hydroxy-2,2-dimethyl-chroman-4-yl]-3-(2-imino-4,4-dimethyl-6-oxo-hexahydropyrimidin-1-yl)-2-methyl-indane-5-carboxamide]",1.3
3,"C[C@H]1Cc2ccc(C(=O)N[C@@H]3c4ccccc4OC(C)(C)[C@H]3O)cc2[C@H]1N1C(=N)NC(C)(C)CC1=O [Example 137, (2S,3S)-N-[(3S,4R)-3-hydroxy-2,2-dimethyl-chroman-4-yl]-3-(2-imino-4,4-dimethyl-6-oxo-hexahydropyrimidin-1-yl)-2-methyl-indane-5-carboxamide]",239
4,"C[C@@H]1C[C@@H](N2C(=N)NC(C)(C)CC2=O)c2cc(C(=O)N[C@@H]3c4ccccc4OC(C)(C)[C@H]3O)ccc21 [Example 138, (1R,3R)-N-[(3S,4R)-3-hydroxy-2,2-dimethyl-chroman-4-yl]-3-(2-imino-4,4-dimethyl-6-oxo-hexahydropyrimidin-1-yl)-1-methyl-indane-5-carboxamide]",0.9
5,"C[C@H]1C[C@H](N2C(=N)NC(C)(C)CC2=O)c2cc(C(=O)N[C@@H]3c4ccccc4OC(C)(C)[C@H]3O)ccc21 [Example 139, (1S,3S)-N-[(3S,4R)-3-hydroxy-2,2-dimethyl-chroman-4-yl]-3-(2-imino-4,4-dimethyl-6-oxo-hexahydropyrimidin-1-yl)-1-methyl-indane-5-carboxamide]",180
6,"CCC1(CC)CC(=O)N([C@H]2c3cc(C(=O)N[C@@H]4c5ccccc5C[C@H]4O)ccc3CC2OC)C(=N)N1 (stereo partly drawn) [Example 140A, (3S)-3-(4,4-diethyl-1-imino-6-oxo-hexahydroyrimidin-1-yl)-N-[(1R,2R)-2-hydroxyindan-1-yl]-2-methoxy-indane-5-carboxamide]",1.4
7,"CC[C@]1(C)CC(=O)N([C@@H]2CCOc3ccc(C(=O)N[C@@H]4c5ccccc5OC[C@H]4OC)cc32)C(=N)N1 [Example 141, (4R)-4-[(4R)-4-ethyl-2-imino-4-methyl-6-oxo-hexahydropyrimidin-1-yl]-N-[(3S,4R)-3-methoxychroman-4-yl]chromane-6-carboxamide]",8.4
8,"COC1COc2ccc(C(=O)N[C@@H]3c4ccccc4C[C@]3(C)O)cc2C1N1C(=N)NC(C)(C)CC1=O (stereo partly drawn) [Example 142, N-[(1R,2S)-2-hydroxy-2-methyl-indan-1-yl]-4-(2-imino-4,4-dimethyl-6-oxo-hexahydropyrimidin-1-yl)-3-methoxy-chromane-6-carboxamide]",98.5
9,"COC1COc2ccc(C(=O)N[C@@H]3c4ccccc4C[C@@]3(C)O)cc2C1N1C(=N)NC(C)(C)CC1=O (stereo partly drawn) [Example 143, N-[(1R,2R)-2-hydroxy-2-methyl-indan-1-yl]-4-(1-imino-4,4-dimethyl-6-oxo-hexahydropyrimidin-1-yl)-3-methoxy-chromane-6-carboxamide]",178
10,"CC1(C)CC(=O)N(C2c3cc(C(=O)N[C@H]4CC(C)(C)Oc5ccccc54)ccc3OCC2O)C(=N)N1 (stereo partly drawn) [Example 144, N-[(4S)-2,2-dimethylchroman-4-yl]-3-hydroxy-4-(2-imino-4,4-dimethyl-6-oxo-hexahydropyrimidin-1-yl)chromane-6-carboxamide]",194
11,"CC[C@]1(C)CC(=O)N(C2c3cc(C(=O)N[C@@H]4c5ccccc5C[C@H]4O)ccc3OCC2OC)C(=N)N1 (stereo partly drawn) [Example 145, 4-[(4R)-4-ethyl-2-imino-4-methyl-6-oxo-hexahydropyrimidin-1-yl]-N-[(1R,2R)-2-hydroxyindan-1-yl]-3-methoxy-chromane-6-carboxamide]",40.8
12,"COCC1(C)Oc2ccc(C(=O)N[C@@H]3c4ccccc4C[C@H]3O)cc2C1N1C(=N)NC(C)(C)CC1=O (stereo partly drawn) [Example 146, N-[(1R,2R)-2-hydroxyindan-1-yl]-3-(2-imino-4,4-dimethyl-6-oxo-hexahydropyrimidin-1-yl)-2-(methoxymethyl)-2-methyl-3H-benzofuran-5-carboxamide]",35.5
13,"CCC1(CC)CC(=O)N([C@@H]2CCOc3ccc(C(=O)N[C@H]4c5cc(F)ccc5C[C@@H]4O)cc32)C(=N)N1 [Example 147, (4R)-4-(4,4-diethyl-2-imino-6-oxo-hexahydropyrimidin-1-yl)-N-[(1S,2S)-6-fluoro-2-hydroxy-indan-1-yl]chromane-6-carboxamide]",160
14,"CCC1(CC)CC(=O)N([C@@H]2CCOc3ccc(C(=O)N[C@@H]4c5cc(F)ccc5C[C@H]4O)cc32)C(=N)N1 [Example 148, (4R)-4-(4,4-diethyl-2-imino-6-oxo-hexahydropyrimidin-1-yl)-N-[(1R,2R)-6-fluoro-2-hydroxy-indan-1-yl]chromane-6-carboxamide]",2.7
15,"CC1(C)CC(=O)N([C@@H]2CCc3ccc(C(=O)N[C@@H]4c5cc(F)ccc5OC(C)(C)[C@H]4O)cc32)C(=N)N1 [Example 149, (3R)-N-[(3S,4R)-6-fluoro-3-hydroxy-2,2-dimethyl-chroman-4-yl]-3-(2-imino-4,4-dimethyl-6-oxo-hexahydropyrimidin-1-yl)indane-5-carboxamide]",1.1
16,"CCC1(CC)CC(=O)N([C@@H]2CCOc3ccc(C(=O)NC(CO)c4ccccc4OC)cc32)C(=N)N1 (stereo partly drawn) [Example 150, (4R)-4-(4,4-diethyl-2-imino-6-oxo-hexahydropyrimidin-1-yl)-N-[2-hydroxy-1-(2-methoxyphenyl)ethyl]chromane-6-carboxamide]",49
17,"CC[C@]1(C)CC(=O)N([C@@H]2CCOc3ccc(C(=O)NC4c5cc(F)ccc5OCC4O)cc32)C(=N)N1 (stereo partly drawn) [Example 151, (4R)-4-[(4R)-4-ethyl-2-imino-4-methyl-6-oxo-hexahydropyrimidin-1-yl]-N-(6-fluoro-3-hydroxy-chroman-4-yl)chromane-6-carboxamide]",5.4
18,"CCC1(CC)CC(=O)N([C@@H]2CCOc3ccc(C(=O)NC4c5ccccc5CC4(F)F)cc32)C(=N)N1 (stereo partly drawn) [Example 152, (4R)-4-(4,4-diethyl-2-imino-6-oxo-hexahydropyrimidin-1-yl)-N-(2,2-difluoroindan-1-yl)chromane-6-carboxamide]",7.7
19,"CC1(C)CC(=O)N([C@@H]2CCOc3ccc(C(=O)N[C@@H]4c5cc(Cl)ccc5OC[C@H]4O)cc32)C(=N)N1 [Example 153, (4R)-N-[(3S,4R)-6-chloro-3-hydroxy-chroman-4-yl]-4-(2-imino-4,4-dimethyl-6-oxo-hexahydropyrimidin-1-yl)chromane-6-carboxamide]",11.5
20,"CCC1(CC)CC(=O)N([C@@H]2CCOc3ccc(C(=O)N[C@@H]4c5ccccc5C5(CC5)[C@H]4O)cc32)C(=N)N1 [Example 154, (4R)-4-(4,4-diethyl-2-imino-6-oxo-hexahydropyrimidin-1-yl)-N-[(1′R,2′R)-2′-hydroxyspiro[cyclopropane-1,3′-indane]-1′-yl]chromane-6-carboxamide]",0.7
21,"CCC1(CC)CC(=O)N([C@@H]2CCOc3ccc(C(=O)N[C@H]4c5ccccc5C5(CC5)[C@@H]4O)cc32)C(=N)N1 [Example 155, (4R)-4-(4,4-diethyl-2-imino-6-oxo-hexahydropyrimidin-1-yl)-N-[(1′S,2′S)-2′-hydroxyspiro[cyclopropane-1,3′-indane]-1′-yl]chromane-6-carboxamide]",82.5
22,"CCC1(CC)CC(=O)N([C@@H]2CCCc3ccc(C(=O)N[C@H]4CC(C)(C)Oc5ccccc54)cc32)C(=N)N1 [Example 156, (4R)-4-(4,4-diethyl-2-imino-6-oxo-hexahydropyrimidin-1-yl)-N-[(4S)-2,2-dimethylchroman-4-yl]tetralin-6-carboxamide]",1.1
23,"CCC1(CC)CC(=O)N([C@@H]2C[C@@H](OC)c3ccc(C(=O)N[C@@H]4c5ccccc5C[C@@]4(C)O)cc32)C(=N)N1 [Example 157, (1R,3R)-3-(4,4-diethyl-2-imino-6-oxo-hexahydropyrimidin-1-yl)-N-[(1R,2R)-2-hydroxy-2-methyl-indan-1-yl]-1-methoxy-indane-5-carboxamide]",19.9
24,"CCC1(CC)CC(=O)N([C@@H]2C[C@H](OC)c3ccc(C(=O)N[C@@H]4c5ccccc5C[C@@]4(C)O)cc32)C(=N)N1 [Example 158, (1S,3R)-3-(4,4-diethyl-2-imino-6-oxo-hexahydropyrimidin-1-yl)-N-[(1R,2R)-2-hydroxy-2-methyl-indan-1-yl]-1-methoxy-indane-5-carboxamide]",0.9
25,"CCC1(CC)CC(=O)N([C@@H]2CCc3ccc(C(=O)N[C@@H]4c5ccccc5OC(C)(C)[C@H]4O)cc32)C(=N)N1 [Example 159, (3R)-3-(4,4-diethyl-2-imino-6-oxo-hexahydropyrimidin-1-yl)-N-[(3S,4R)-3-hydroxy-2,2-dimethyl-chroman-4-yl]indane-5-carboxamide]",0.5
26,"CC1(C)CC(=O)N([C@@H]2CC(C)(C)c3ccc(C(=O)N[C@@H]4c5ccccc5OC(C)(C)[C@H]4O)cc32)C(=N)N1 [Example 160, (3R)-N-[(3S,4R)-3-hydroxy-2,2-dimethyl-chroman-4-yl]-3-(2-imino-4,4-dimethyl-6-oxo-hexahydropyrimidin-1-yl)-1,1-dimethyl-indane-5-carboxamide]",8.3
